Measured values published in PubChem BioAssay (NCI).
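Values below derive from 48-hour exposures of cells grown in 96-well plates, with endpoints linearly interpolated between the two concentrations bracketing the appropriate inhibition level. GI50: concentration for 50% inhibition of growth. TGI marks complete inhibition of growth.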

What was measured:
Assay in all cases: growth of human tumour cells (NCI), 48 h
MDA-MB-435 = system: MDA-MB-435
SF-539 CNS = system: SF-539 CNS
BT-549 breast = system: BT-549 breast
NCI/ADR-RES ovarian = system: NCI/ADR-RES ovarian
SK-OV-3 ovarian = system: SK-OV-3 ovarian
NCI-H460 lung = system: NCI-H460 lung
PC-3 prostate = system: PC-3 prostate
UACC-62 melanoma = system: UACC-62 melanoma
HS 578T breast = system: HS 578T breast
OVCAR-4 ovarian = system: OVCAR-4 ovarian

SMILES	TGI (MDA-MB-435) [µM]	TGI (SF-539 CNS) [µM]	TGI (BT-549 breast) [µM]	TGI (NCI/ADR-RES ovarian) [µM]	TGI (SK-OV-3 ovarian) [µM]	TGI (NCI-H460 lung) [µM]	TGI (PC-3 prostate) [µM]	TGI (UACC-62 melanoma) [µM]	TGI (HS 578T breast) [µM]	TGI (OVCAR-4 ovarian) [µM]	GI50 (SK-OV-3 ovarian) [µM]	GI50 (NCI-H460 lung) [µM]
N#C/C(C(=O)Nc1ccc(Cl)cc1)=C(/N)N1CCCC1	> 100	> 100	> 100	> 100	> 100	> 100	> 100	> 100				
O=P(O)(O)c1ccccc1Oc1ccccc1	> 100	> 100	> 100	> 100	> 100	> 100	> 100	> 100	> 100			
OCCOCn1nncc1Cn1ncc2c(SCc3ccccc3)ncnc21	> 100	> 100	> 100	> 100	> 100	> 100	> 100	> 100	> 100	> 100		
CC1(C)OCC2OC3([C@@H]4OC(C)(C)O[C@H]4CO)OC(C)(C)OC3C2O1 (some centres not stated)	> 100	> 100	> 100	> 100		> 100	> 100	> 100		> 100		
CSc1cc(=O)n2c3ccccc3c3ccnc1c32		> 71.4		> 100	97.5	> 100		> 100		> 100		
COc1ccc(-c2c3c(n(C4OC(CO)C(O)C(O)C4O)c(=S)c2C#N)CCC3)cc1 (configuration not stated)	> 100	> 100	> 100	> 100	> 100	> 100	> 100	> 100	> 100	> 100		
C1=C2C3=[N+](CCCCC3)CC2Cc2ccsc21 (configuration not stated)	> 100		> 100	> 100	> 100	> 100	> 100	> 100	> 100	> 100		
COc1cc2cc(C(=O)N3C[C@H](CCl)c4c3cc(N)c3ccccc43)[nH]c2c(OC)c1OC	0.137	3.3		7.69	0.819	0.0067					0.0398	0.005
NCCCCNCCCNC(=O)c1nc(-c2nc(CCN)sc2Cl)sc1Cl		> 100			> 100	> 100		> 100		71.8		
COC(=O)[C@@H]1CCCCC[C@H]2C(CO)=C(C)C(=O)C12 (some centres not stated)		> 100			> 100	> 100		> 100		> 100		
O=C1C=CC(=O)N1n1c(-c2ccccc2)n[nH]c1=O	> 100	> 100	> 100	> 100	> 100	> 100	> 100	> 100	> 100	> 100		
O=C1NC2CCCCC2N=C1CC(=O)c1ccc(Br)cc1 (configuration not stated)	> 100	> 100	94.2	> 100	> 100	> 100	> 100	> 100	42.1			
CC1C(NNc2ccccc2)Oc2cc3c(cc2C1c1ccccc1O)OCO3 (configuration not stated)	12.5	4.56	27.4		22.3	18.5	21.5	17.2	42.7			
COc1ccc(C2C3=C(COC3=O)Oc3cc4c(cc32)OCO4)c(OC)c1 (configuration not stated)	5.49	43.6	> 100	> 100	93.1	> 100	> 100		98.3	> 100		
COc1ccc(OC2OC(CO)C(OCc3ccccc3)C(OCc3ccccc3)C2OCc2ccccc2)cc1 (configuration not stated)	> 100	> 100	> 100	> 100	> 100	> 100	> 100	> 100	> 100			
CN(C)CCNC(=O)c1cc(Cl)cc2ccc(-c3ccccc3)nc12		9.18		10.9	12.8	7.09		6.36		13.7		
O=C(CCc1cc(O)cc(O)c1)NCCCNC(=O)CCc1cc(O)cc(O)c1	> 100	> 100	> 100	> 100	> 100		> 100	> 100		> 100		
CCP(=O)(OC)C1=CCN(C(=O)OCC[Si](C)(C)C)CC1 (configuration not stated)	> 100	> 100		> 100	> 100	> 100	> 100	> 100	> 100	> 100		
CC(C)C(CC(=O)OCC(CO)OC(=O)CC(C(C)C)C(C)C)C(C)C (configuration not stated)	28.1		33.1	27.3	30.9	26.8	30.3	32.8	21.5	33.4		
Cn1c(=O)c(-c2ccccc2)c(O)c2ccccc21	> 100	> 100	> 100	> 100		> 100	> 100		> 100	> 100		
CC(C)N1CC2CC(CN(C(=O)c3ccccc3)C2)C1		> 100			> 100	> 100		> 100		> 100		
O=c1cc(-c2ccncc2)[nH]c2cc3c(cc12)OCO3	> 100	> 100		> 100	> 100	> 100		> 100	> 100	> 100		
CC1CCC2(NC1)OC1CC3C4CC=C5CC(OC6OC(CO)C(OC7OC(C)C(O)C(O)C7O)C(O)C6OC6OC(C)C(O)C(O)C6O)CCC5(C)C4CCC3(C)C1C2C (configuration not stated)	5	8.75	30.3		19.5	9.16	4.28	7.71	15.6	7.27		
Cc1ccc(C(=O)N/N=C(\N=Nc2ccccc2)c2ccc(N(C)C)cc2)cc1	> 100	> 100	> 100	> 100	> 100	> 100	> 100	> 100		> 100		
CSc1nc(NC(C)C)c2c(n1)Sc1nc3ccccc3n1N=C2	70.3		> 100	46.7	28.2	79.5	> 100	23.6	54.5	22.5		
